Measured values reported in ChEMBL document CHEMBL5291721, “A preclinical secondary pharmacology resource illuminates target-adverse drug reaction associations of marketed drugs” (Nat Commun, 2023).

Columns and labels:
[1] = target: T1, Alpha-2B adrenergic receptor (Homo sapiens, UniProt P18089)
T1 sequence (P18089 whole entry): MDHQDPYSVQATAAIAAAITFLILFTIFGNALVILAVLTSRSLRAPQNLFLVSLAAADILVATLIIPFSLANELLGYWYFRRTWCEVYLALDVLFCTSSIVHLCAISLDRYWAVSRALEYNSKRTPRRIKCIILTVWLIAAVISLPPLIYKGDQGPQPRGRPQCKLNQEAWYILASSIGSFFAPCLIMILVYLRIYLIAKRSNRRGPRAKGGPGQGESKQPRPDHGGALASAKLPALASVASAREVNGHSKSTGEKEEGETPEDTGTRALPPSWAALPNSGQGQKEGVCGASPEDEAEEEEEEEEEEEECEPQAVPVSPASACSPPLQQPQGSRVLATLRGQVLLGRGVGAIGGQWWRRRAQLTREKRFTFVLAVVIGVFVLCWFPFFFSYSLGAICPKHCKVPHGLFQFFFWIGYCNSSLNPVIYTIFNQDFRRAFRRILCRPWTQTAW

[2] = target: Voltage-dependent L-type calcium channel subunit alpha-1C (Rattus norvegicus, UniProt P22002); format: functional
Sequence of Voltage-dependent L-type calcium channel subunit alpha-1C (P22002 whole entry): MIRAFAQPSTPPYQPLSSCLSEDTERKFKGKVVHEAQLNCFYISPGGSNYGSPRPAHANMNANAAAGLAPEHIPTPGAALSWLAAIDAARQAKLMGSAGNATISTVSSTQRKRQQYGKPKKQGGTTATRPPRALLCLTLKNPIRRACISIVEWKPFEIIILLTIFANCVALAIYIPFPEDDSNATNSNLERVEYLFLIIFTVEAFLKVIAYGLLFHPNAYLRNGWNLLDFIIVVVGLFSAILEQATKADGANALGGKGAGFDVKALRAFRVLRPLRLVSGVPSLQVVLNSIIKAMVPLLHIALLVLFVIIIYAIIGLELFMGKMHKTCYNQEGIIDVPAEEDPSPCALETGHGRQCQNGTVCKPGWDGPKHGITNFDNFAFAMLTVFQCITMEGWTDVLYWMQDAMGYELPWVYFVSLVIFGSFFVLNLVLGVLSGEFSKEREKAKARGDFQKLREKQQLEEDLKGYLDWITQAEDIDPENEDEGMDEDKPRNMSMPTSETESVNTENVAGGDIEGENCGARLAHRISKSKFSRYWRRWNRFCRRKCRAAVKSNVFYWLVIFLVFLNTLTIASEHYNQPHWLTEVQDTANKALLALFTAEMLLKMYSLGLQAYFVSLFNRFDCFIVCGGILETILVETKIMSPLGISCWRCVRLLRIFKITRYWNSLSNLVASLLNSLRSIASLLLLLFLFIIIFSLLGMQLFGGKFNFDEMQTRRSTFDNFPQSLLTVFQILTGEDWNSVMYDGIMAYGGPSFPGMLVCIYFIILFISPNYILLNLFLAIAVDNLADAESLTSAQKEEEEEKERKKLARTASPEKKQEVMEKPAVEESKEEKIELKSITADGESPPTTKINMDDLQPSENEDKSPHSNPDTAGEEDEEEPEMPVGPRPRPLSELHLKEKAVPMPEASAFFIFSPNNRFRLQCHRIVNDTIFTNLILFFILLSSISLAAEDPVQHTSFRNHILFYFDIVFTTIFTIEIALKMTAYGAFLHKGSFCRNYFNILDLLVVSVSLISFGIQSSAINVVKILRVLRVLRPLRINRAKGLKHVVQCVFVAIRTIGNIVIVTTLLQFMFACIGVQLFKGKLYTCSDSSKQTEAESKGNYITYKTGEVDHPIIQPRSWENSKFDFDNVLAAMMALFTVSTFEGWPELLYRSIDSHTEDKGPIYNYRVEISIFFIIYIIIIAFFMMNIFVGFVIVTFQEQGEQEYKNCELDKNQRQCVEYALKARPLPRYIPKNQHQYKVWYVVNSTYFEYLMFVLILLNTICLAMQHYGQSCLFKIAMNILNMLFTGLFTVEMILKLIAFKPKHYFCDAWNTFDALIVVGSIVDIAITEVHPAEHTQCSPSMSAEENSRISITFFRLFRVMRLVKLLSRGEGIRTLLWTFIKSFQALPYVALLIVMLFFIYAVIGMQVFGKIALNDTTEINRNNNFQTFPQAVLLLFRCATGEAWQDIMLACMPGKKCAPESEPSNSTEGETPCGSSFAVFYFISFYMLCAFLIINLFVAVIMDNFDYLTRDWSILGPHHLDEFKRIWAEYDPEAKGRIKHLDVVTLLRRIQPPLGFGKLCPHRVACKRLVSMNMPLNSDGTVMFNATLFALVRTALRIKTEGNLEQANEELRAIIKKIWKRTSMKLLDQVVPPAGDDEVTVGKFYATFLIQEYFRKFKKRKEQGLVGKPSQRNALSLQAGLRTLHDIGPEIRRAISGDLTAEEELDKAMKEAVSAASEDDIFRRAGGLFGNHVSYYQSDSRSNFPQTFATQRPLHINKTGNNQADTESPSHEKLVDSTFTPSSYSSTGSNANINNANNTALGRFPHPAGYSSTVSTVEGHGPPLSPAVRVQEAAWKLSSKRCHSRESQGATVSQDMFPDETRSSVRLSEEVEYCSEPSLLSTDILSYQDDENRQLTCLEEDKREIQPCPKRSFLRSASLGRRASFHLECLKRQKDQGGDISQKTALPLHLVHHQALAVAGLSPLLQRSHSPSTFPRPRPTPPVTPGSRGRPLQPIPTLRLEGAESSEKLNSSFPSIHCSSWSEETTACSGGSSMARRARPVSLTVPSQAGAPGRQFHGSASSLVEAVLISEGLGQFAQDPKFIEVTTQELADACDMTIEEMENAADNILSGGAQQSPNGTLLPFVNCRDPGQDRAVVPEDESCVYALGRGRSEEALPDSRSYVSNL

[3] = target: T2, Muscarinic acetylcholine receptor M2 (Homo sapiens, UniProt P08172); format: functional, cell-based
T2 sequence (P08172 whole entry): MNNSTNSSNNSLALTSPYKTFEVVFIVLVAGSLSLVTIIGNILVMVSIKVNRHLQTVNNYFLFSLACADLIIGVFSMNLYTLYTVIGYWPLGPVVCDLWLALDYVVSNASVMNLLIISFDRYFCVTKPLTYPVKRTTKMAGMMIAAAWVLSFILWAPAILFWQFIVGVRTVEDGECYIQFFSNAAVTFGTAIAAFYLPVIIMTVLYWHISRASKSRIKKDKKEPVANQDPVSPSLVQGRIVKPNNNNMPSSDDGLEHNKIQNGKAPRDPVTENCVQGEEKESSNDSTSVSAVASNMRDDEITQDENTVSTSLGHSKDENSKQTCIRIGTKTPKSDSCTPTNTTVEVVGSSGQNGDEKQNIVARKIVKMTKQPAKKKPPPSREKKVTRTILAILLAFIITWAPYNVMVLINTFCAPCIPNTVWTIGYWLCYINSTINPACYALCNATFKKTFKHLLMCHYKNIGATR

[4] = target: Kappa-type opioid receptor (Homo sapiens, UniProt P41145)
Sequence of Kappa-type opioid receptor (P41145 whole entry): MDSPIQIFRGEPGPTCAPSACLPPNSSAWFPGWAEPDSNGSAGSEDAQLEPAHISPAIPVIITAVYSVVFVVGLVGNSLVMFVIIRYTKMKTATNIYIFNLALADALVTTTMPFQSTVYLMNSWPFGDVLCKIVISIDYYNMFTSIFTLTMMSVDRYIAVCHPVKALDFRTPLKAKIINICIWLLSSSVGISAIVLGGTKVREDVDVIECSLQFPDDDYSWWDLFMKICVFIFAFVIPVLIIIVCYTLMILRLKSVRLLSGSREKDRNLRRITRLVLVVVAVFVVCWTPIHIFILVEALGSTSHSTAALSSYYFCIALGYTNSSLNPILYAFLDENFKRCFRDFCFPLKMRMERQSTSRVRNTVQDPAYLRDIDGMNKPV

Progesterone receptor = target: T3, Progesterone receptor (Homo sapiens, UniProt P06401); format: functional
T3 sequence (P06401 whole entry): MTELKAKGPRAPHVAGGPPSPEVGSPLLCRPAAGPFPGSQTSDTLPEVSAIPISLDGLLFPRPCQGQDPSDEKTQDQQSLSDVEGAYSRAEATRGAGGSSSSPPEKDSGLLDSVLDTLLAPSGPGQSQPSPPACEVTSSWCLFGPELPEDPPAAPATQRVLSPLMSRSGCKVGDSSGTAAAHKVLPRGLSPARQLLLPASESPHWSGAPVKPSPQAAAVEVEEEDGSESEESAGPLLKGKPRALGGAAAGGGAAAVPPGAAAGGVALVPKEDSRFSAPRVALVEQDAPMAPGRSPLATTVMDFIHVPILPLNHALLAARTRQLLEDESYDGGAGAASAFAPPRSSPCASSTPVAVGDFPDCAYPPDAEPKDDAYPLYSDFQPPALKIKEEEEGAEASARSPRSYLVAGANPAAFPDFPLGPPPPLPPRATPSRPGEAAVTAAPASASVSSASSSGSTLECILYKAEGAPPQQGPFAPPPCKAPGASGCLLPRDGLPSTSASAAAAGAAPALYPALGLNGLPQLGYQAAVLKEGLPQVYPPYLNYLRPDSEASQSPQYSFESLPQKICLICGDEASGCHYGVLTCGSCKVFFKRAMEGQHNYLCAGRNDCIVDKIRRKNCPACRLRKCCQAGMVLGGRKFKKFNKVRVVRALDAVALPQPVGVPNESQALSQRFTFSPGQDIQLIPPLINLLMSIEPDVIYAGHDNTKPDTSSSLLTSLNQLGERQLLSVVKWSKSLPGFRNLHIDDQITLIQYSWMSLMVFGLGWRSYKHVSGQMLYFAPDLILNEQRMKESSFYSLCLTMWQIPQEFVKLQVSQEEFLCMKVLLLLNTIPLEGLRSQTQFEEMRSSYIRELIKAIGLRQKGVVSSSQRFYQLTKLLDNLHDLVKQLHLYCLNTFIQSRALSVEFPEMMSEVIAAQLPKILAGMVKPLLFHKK

[5] = target: Sodium-dependent noradrenaline transporter (Homo sapiens, UniProt P23975)
Sequence of Sodium-dependent noradrenaline transporter (P23975 whole entry): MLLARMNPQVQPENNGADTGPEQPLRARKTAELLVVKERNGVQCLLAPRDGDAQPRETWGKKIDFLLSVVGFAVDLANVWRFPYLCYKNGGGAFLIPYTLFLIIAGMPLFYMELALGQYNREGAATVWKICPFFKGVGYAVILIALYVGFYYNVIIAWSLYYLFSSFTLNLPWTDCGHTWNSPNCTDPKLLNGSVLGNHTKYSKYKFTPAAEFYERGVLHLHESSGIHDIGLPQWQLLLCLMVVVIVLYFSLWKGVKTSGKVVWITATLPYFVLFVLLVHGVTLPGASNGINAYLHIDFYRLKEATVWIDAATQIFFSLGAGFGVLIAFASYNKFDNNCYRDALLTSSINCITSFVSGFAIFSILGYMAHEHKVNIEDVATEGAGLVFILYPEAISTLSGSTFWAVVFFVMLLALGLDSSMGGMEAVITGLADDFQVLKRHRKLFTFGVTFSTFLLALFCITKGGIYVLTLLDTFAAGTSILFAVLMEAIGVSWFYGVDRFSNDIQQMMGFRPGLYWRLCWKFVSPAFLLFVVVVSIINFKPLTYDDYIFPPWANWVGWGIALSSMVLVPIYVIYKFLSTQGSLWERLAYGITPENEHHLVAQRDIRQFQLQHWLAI

Glucocorticoid receptor = target: T4, Glucocorticoid receptor (Homo sapiens, UniProt P04150)
T4 sequence (P04150 whole entry): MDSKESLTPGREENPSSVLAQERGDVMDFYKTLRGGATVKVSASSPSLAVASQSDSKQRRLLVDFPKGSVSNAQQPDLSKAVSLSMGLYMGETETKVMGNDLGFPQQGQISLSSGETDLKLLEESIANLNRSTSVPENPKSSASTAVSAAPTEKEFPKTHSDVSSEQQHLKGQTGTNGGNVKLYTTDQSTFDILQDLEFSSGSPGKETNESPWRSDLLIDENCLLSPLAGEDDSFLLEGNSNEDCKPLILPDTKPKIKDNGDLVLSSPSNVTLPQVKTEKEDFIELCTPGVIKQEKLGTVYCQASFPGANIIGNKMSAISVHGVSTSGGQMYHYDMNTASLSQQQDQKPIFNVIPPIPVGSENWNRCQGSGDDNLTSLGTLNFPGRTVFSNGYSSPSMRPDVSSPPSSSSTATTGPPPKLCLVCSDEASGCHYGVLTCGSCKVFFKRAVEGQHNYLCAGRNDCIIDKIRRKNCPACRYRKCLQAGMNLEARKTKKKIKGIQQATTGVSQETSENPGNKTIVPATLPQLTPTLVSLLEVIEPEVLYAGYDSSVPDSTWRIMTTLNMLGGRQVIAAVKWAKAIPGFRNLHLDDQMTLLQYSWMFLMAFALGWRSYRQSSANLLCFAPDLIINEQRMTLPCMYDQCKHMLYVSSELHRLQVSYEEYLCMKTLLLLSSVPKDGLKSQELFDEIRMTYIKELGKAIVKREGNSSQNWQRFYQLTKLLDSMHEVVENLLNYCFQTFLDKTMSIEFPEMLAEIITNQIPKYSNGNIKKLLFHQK
Note: assay procedure not described here.

| SMILES | AC50 [1] [µM] | AC50 [2] [µM] | AC50 [3] [µM] | AC50 [4] [µM] | AC50 (Progesterone receptor) [µM] | AC50 [5] [µM] | AC50 (Glucocorticoid receptor) [µM] |
| --- | --- | --- | --- | --- | --- | --- | --- |
| O=C(O)CCCCCCCC(=O)O [AZELAIC ACID] | > 10 | > 10 | > 10 | > 10 | > 10 | > 10 |  |
| CC(C)(C)C(=O)Oc1ccc(S(=O)(=O)Nc2ccccc2C(=O)NCC(=O)O)cc1 | > 30 | > 30 | > 30 | > 30 | > 30 | > 30 |  |
| COc1ccc2c3c1O[C@H]1[C@@H](O)C=C[C@H]4[C@@H](C2)N(C)CC[C@@]341 [CODEINE] | > 10 | > 10 | > 10 |  |  | > 30 |  |
| Cn1c(=O)c2c(ncn2CC2OCCO2)n(C)c1=O [DOXOFYLLINE] |  | > 30 | > 30 | > 30 | > 30 | > 30 |  |
| COc1ccc(-c2ccc3cc(C(=O)O)ccc3c2)cc1C12CC3CC(CC(C3)C1)C2 | > 30 | 1.5 | > 30 | > 30 | > 30 | > 30 |  |
| N#Cc1ccc([C@H]2CCc3cncn32)c(F)c1 [OSILODROSTAT] | > 10 | > 10 |  | > 10 |  | > 10 |  |
| CCCC(C)C1(CC)C(=O)NC(=O)NC1=O (centres undefined) [PENTOBARBITAL] | > 30 | > 10 | > 10 | > 10 | > 10 | > 10 |  |
| C[C@](N)(Cc1ccc(O)c(O)c1)C(=O)O [METHYLDOPA] |  | > 10 | > 10 | > 10 | > 30 | > 10 |  |
| CC(C)C(=O)c1c(C(C)C)nn2ccccc12 [IBUDILAST] | > 30 | > 30 | > 30 | > 30 | > 30 | > 30 |  |
| C#C[C@]1(O)CC[C@H]2[C@@H]3CCc4cc(OC5CCCC5)ccc4[C@H]3CC[C@@]21C [QUINESTROL] | > 10 | > 10 | > 10 | > 10 | 0.221 | > 10 |  |
| CC(=O)O[C@H]1CC[C@@]2(C)C(=CC[C@@H]3[C@@H]2CC[C@]2(C)C(c4cccnc4)=CC[C@@H]32)C1 [ABIRATERONE ACETATE] | > 30 |  | > 30 |  | > 30 | > 30 |  |
| CC[C@@H]1C(=O)OC[C@@H]1Cc1cncn1C [PILOCARPINE] | > 10 | > 10 |  | > 10 |  | > 30 |  |
| CNC(C)CCC=C(C)C (centres undefined) [ISOMETHEPTENE] |  |  |  |  | > 30 | > 30 |  |
| CN1CCN(CC/C=C2/c3ccccc3Sc3ccc(S(=O)(=O)N(C)C)cc32)CC1 [THIOTHIXENE] |  | > 10 | > 10 | 11.6 |  | > 10 |  |
| Nc1nc(N)nc(-c2cc(Cl)ccc2Cl)n1 [IRSOGLADINE] |  |  | > 30 |  | > 30 | > 30 | > 30 |
| CC(=O)O[C@H]1C[C@@H]2CC[C@@H]3[C@H](CC[C@@]4(C)[C@H]3C[C@H]([N+]3(C)CCCCC3)[C@@H]4OC(C)=O)[C@@]2(C)C[C@@H]1N1CCCCC1 [VECURONIUM] |  | > 30 | > 30 | > 30 | > 30 | > 30 |  |
| CCCc1nc(C(C)(C)O)c(C(=O)OCc2oc(=O)oc2C)n1Cc1ccc(-c2ccccc2-c2nnn[nH]2)cc1 [OLMESARTAN MEDOXOMIL] | > 10 | > 10 | > 10 | > 10 |  | > 30 |  |
| Cc1ccc(S(=O)(=O)NC(=O)NN2CC3CCCC3C2)cc1 (centres undefined) [GLICLAZIDE] |  | > 10 | > 10 | > 10 | > 10 | > 10 |  |
| C/C(O)=C(\C#N)C(=O)Nc1ccc(C(F)(F)F)cc1 [TERIFLUNOMIDE] | > 30 |  | > 30 |  | > 30 | > 30 |  |
| COc1ccccc1N1CCN(CCCNc2cc(=O)n(C)c(=O)n2C)CC1 |  | > 30 | > 30 | > 30 | > 30 | > 30 |  |
| CCOC(=O)[C@H](CCc1ccccc1)N[C@@H](C)C(=O)N1C(=O)N(C)C[C@H]1C(=O)O | > 30 | > 30 | > 30 |  | > 30 | > 30 |  |
| O=C(NCCN1CCOCC1)c1ccc(Cl)cc1 [MOCLOBEMIDE] |  | > 10 | > 10 | > 10 | > 10 | > 10 |  |
| CC(CC(c1ccccc1)c1ccccc1)NC(C)(C)C (centres undefined) [TERODILINE] | 16 | > 30 | > 30 | 8.4 | > 30 | > 30 |  |
| CO/N=C(\C(=O)N[C@@H]1C(=O)N2C(C(=O)O)=C(CSc3nnnn3C)CS[C@H]12)c1csc(N)n1 [CEFMENOXIME] |  |  | > 30 |  | > 30 | > 30 | > 30 |
| CCN1CCN(C(=O)N[C@@H](C(=O)N[C@@H]2C(=O)N3C(C(=O)O)=C(CSc4nnnn4C)CS[C@H]23)c2ccc(O)cc2)C(=O)C1=O [CEFOPERAZONE] | > 30 |  | > 30 | > 10 |  | > 30 |  |
| CNS(=O)(=O)Cc1ccc2[nH]cc(CCN(C)C)c2c1 |  | > 10 | > 30 | > 30 |  | > 10 | > 30 |
| CN1C(=O)C(O)N=C(c2ccccc2)c2cc(Cl)ccc21 (centres undefined) [TEMAZEPAM] | > 10 | > 10 | > 10 | 9.19 |  | > 10 |  |
| CCN(CC)C(=O)N[C@H]1C[C@@H]2c3cccc4[nH]cc(c34)C[C@H]2N(C)C1 [TERGURIDE] |  |  | > 30 | > 30 | > 30 | > 30 |  |
